The text below walks through data of patent US10322180B2, “Pharmaceutical composition comprising modified hemoglobin-based therapeutic agent for cancer targeting treatment and diagnostic imaging” (Vision Global Holdings Ltd., priority 2013, dated 2019).

This test relates to Liver cancer cells, HepG2. Put plainly: Live cell imaging uptake, liver cancer cells. It counts as cell-based, human. To be noted: FIG. 23A-23C. How it is done: Cancer cells (e.g. HepG2 liver cancer cells) are seeded onto glass bottom microwell dishes (MatTek Corporation). Live cells at defined zooms (63×, 20×) are acquired using Zeiss Observer Z1 widefield microscope, equipped with atmospheric/temperature-controlled chamber and motorized stage for multi-positional acquisition. The incubation is performed in an enclosed live cell imaging system purged with 0.1% 02 and 5% CO2 (premixed). Cells are exposed to (1) Hb-5FU-alkyl(non-cleavable)-FL conjugate, labeled with one fluorescent dye and (2) Hb-5Fu-Dan-TAM conjugate, labeled with two fluorescent dyes; for 15 min prior to the acquisition of images every 3 min for a period of 2 h. Images are deconvolved and compacted into time-lapse movies using the MetaMorph software (Molecular Device).

In the case of “fluorescent labeled hemoglobin: hemoglobin linked to one or more molecules of fluorescein (fluorescein 6-carboxysuccinimidyl ester, F-6-NHS)”, the “entry into liver cancer cells (fluorescent signal under microscope)” value is on record as “can also enter into the cancer cells”. For the same substance, the “entry into liver cancer cells (fluorescent signal under microscope)” value (listed as fluorescent labeled modified hemoglobin) is reported as “can enter into liver cancer cells successfully”.
